Legend:
cells in bone = details: decontamination with 2% chlorhexidine gluconate; cited from earlier work
[1] = tested on: microbial contamination of osteoarticular fracture fragments; experiment: Quantitative microbial culture of osteoarticular fragments, colony forming units per specimen (Example 3); assay type: cell-based; details: for Colony Forming Units, mean (SD): 20 min immersion (10% povidone-iodine or 0.002% chlorhexidine)
Text: Purpose-bred hounds (n=16) were humanely euthanized, immediately after which an open articular fracture in both elbows (n=32) was created using a captive bolt pistol. Each dog was positioned in sternal recumbency with one forelimb extended and secured in a custom made positioning apparatus. Fur was not clipped and no aseptic preparation or techniques were implemented. A captive bolt stunner pistol with a 4.75-inch penetrating pin and 1.25 grain cartridge was centered on the cranial (anterior) aspect of the distal humerus, immediately proximal to the joint. With firm pressure against the secured elbow, the pistol was discharged, and the procedure was repeated for the contralateral elbow. Soft tissues were removed aseptically and the distal humerus (n=32), proximal radius (n=32), and trochlea (n=32) were osteotomized and processed under operating room conditions in 1 of 3 ways: 1) Betadine ([…]): 0.9% saline irrigation (1 L), 10% povidone-iodine solution immersion (20 min), saline irrigation; 2) Chlorhexidine (n=42): saline irrigation, 0.002% chlorhexidine solution immersion (20 min), saline irrigation; 3) Control (n=12): untreated. Each osteoarticular fragment was placed in 200 ml of MOPS® solution (500 ml DMEM, 5 ml ITS (insulin (10 mg/L), transferrin 55 mg/L), selenium (6.7 μg/L)), 5 ml total penicillin (100 U/ml), streptomycin (100 μg/ml), amphotericin B (2.5 μg/ml), 5 ml L-glutamine (2 mM), 5 ml non-essential amino acids (0.1 mM), 1 ml ascorbic acid (50 ng/ml), and 5.46 ml dexamethasone (0.1 μM)) in a sterile container and stored under standard room temperature and humidity conditions for 7 (n=46) or 14 (n=48) days. At each time point, viable chondrocyte density (VCD) and quantitative microbial culture assessments were assayed, yielding a count of colony forming units (CFU) per specimen.
In parallel, quantitative microbial cultures were performed on the humerus, radial head, and trochlea of each dog at either 7 or 14 days. Each tissue intended for culture was placed into 18 ml thioglycollate broth and vortexed for 30 seconds. One milliliter of the broth was immediately extracted for the 1:1 dilution and placed in an Eppendorf tube. Serial 1:10 dilutions were made from that subsample and plated within an hour. The plating process comprised 10 μl of each dilution streaked semi-quantitatively onto tryptic soy agar with 5% sheep blood and reduced blood agar. All dilutions were incubated for 72 hours before counting. Additional incubation in the remaining 17 ml thioglycollate for 48 hours was performed, and 10 μl of thioglycollate was re-streaked at that time and incubated for another 72 hours. Organisms were identified via MALDI-TOF or 16S sequencing.
Univariate comparison of VCD and CFU were performed via Kruskal-Wallis and Chi-squared test. Multivariate linear regression was used, controlling for osteotomy site and storage time, to determine the correlation between processing method and VCD or CFU. Data manipulation and statistical analysis were performed using R software.

[2] = tested on: contaminated osteochondral tissues; details: 10% povidone-iodine or 0.4% chlorhexidine, 20-minute immersion; cited from earlier work

[H]/N=C(\N/C(=N/[H])NCCCCCCNC(=N)NC(=N)Nc1ccc(Cl)cc1)Nc1ccc(Cl)cc1 [Chlorhexidine, chlorhexidine gluconate]
cell viability in bone (cells in bone): complete loss of cell viability
mean CFU ([1]; at 7 days): 0.4
mean CFU ([1]; at 14 days): 7.9
decrease of CFU relative to control treatment ([1]; multivariate linear regression, controlling for osteotomy site and storage timing): 15.8×10^6 CFU
decontamination of osteoarticular fracture fragments (in words) ([1]; saline irrigation, 0.002% chlorhexidine immersion, room temperature storage in MOPS): effective for decontaminating osteoarticular fracture fragments
Colony Forming Units, mean (SD) ([1]; storage time 7 days in MOPS at room temperature): 0.4 (1.8) 10^6 per specimen
Colony Forming Units, mean (SD) ([1]; storage time 14 days in MOPS at room temperature): 7.9 (14.2) 10^6 per specimen
decontamination of contaminated osteochondral tissues [2]: effective at fully decontaminating

— patent publication US20250255293A1, “TISSUE DECONTAMINATION AND PRESERVATION SYSTEM” (priority 2024, published 2025)
